Measurements published in patent publication US20060069132A1, “Azolecarboxamide herbicides” (priority 2004, published 2006).

Legend:
Test in all cases: Test E pre-/postemergence herbicide test
green foxtail = format: in vivo, Setaria viridis
Excerpt: (§1) Seeds of plant species selected from bipinnate beggarticks (Bidens bipinnata L.), hairy beggarticks (Bidens radiata Thuill.), bermudagrass (Cynodon dactylon (L.) Pers.), Surinam grass (Urochloa decumbens (Staph) R. D. Webster, previously named Brachiaria decumbens Stapf), large crabgrass (Digitaria sanguinalis (L.) Scop.), green foxtail (Setaria viridis (L.) P. Beauv.), goosegrass (Eleusine indica (L.) Gaertn.), johnsongrass (Sorghum halepense (L.) Pers.), kochia (Kochia scoparia (L.) Schrad.), pitted morningglory (Ipomoea lacunosa L.), purple nutsedge (Cyperus rotundus L.), common ragweed (Ambrosia elatior L.), mustard (Brassica nigra (L.) W. D. J. Koch), guineagrass (Panicum maximum Jacq.), dallisgrass (Paspalum dilatatum Poir.), barnyardgrass (Echinochloa crus-galli (L). P. Beauv.), southern sandbur (Cenchrus echinatus L.), common sowthistle (Sonchus oleraceous L.), prickly sida (Sida spinosa L.), Italian ryegrass (Lolium multiflorum Lam.), common purslane (Portulaca oleracea L.), broadleaf signalgrass (Brachiaria platyphylla (Griseb.) Nash), common groundsel (Senecio vulgaris L.), common chickweed (Stellaria media (L.) Vill/Cyr.), tropical spiderwort (Commelina benghalensis L.), annual bluegrass (Poa annua L.), downy bromegrass (Bromus tectorum L.), itchgrass (Rottboellia cochinchinensis (L.) L.f.), quackgrass (Elytrigia repens (L.) Nevski), Canada horseweed (Erigeron Canadensis L.), field bindweed (Convolvulus arvensis L.), spotted spurge (Euphorbia maculata L.), common mallow (Malva sylvestris (=s silvestris) L.), and Russian thistle (Salsola kali L. ssp. Ruthenica (Iljin) Soo) were planted and treated preemergence with test chemicals formulated in a non-phytotoxic solvent mixture which included a surfactant.
(§2) At the same time, plants selected from these weed species were treated with postemergence applications of some of the test chemicals formulated in the same manner. Plants ranged in height from 2 to 18 cm (1- to 4-leaf stage) for postemergence treatments. Treated plants and controls were maintained in a greenhouse for 12 to 14 days, after which time all species were compared to controls and visually evaluated. Plant response ratings, summarized in Table E, are based on a scale of 0 to 100 where 0 is no effect and 100 is complete control. A dash (-) response means no test result.

goosegrass = format: in vivo, Eleusine indica
Excerpt: as §1, §2

mustard = format: in vivo, Brassica nigra
Excerpt: as §1, §2

guineagrass = format: in vivo, Panicum maximum
Excerpt: as §1, §2

barnyardgrass = format: in vivo, Echinochloa crus-galli
Excerpt: as §1, §2

southern sandbur = format: in vivo, Cenchrus echinatus
Excerpt: as §1, §2

common sowthistle = format: in vivo, Sonchus oleraceous
Excerpt: as §1, §2

Italian ryegrass = format: in vivo, Lolium multiflorum
Excerpt: as §1, §2

broadleaf signalgrass = format: in vivo, Brachiaria platyphylla
Excerpt: as §1, §2

tropical spiderwort = format: in vivo, Commelina benghalensis
Excerpt: as §1, §2

[1] = Postemergence, 500 g ai/ha, scale 0 to 100
[2] = Postemergence, 250 g ai/ha, scale 0 to 100
[3] = Preemergence, 62 g ai/ha, scale 0 to 100
[4] = Preemergence, 125 g ai/ha, scale 0 to 100
[5] = Preemergence, 250 g ai/ha, scale 0 (no effect) to 100 (complete control)
[6] = Preemergence, 500 g ai/ha, scale 0 (no effect) to 100 (complete control)
[7] = postemergence, 125 g ai/ha, scale 0 to 100
[8] = postemergence, 62 g ai/ha, scale 0 to 100
[9] = Preemergence, 375 g ai/ha, scale 0 (no effect) to 100 (complete control)

## CCn1nc(C2(C)CC2)cc1C(=O)Nc1cc(C(=O)N(C)C)ccc1F [Compound 299]
Green foxtail; [1]
  Plant response rating, Foxtail, Green: 100
Green foxtail; [2]
  Plant response rating, Foxtail, Green: 85
Green foxtail; [3]
  Plant response rating, Foxtail, Green: 50
Green foxtail; [4]
  Plant response rating, Foxtail, Green: 100
Green foxtail; [5]
  Plant response rating, Foxtail, Green: 100
Green foxtail; [6]
  Plant response rating, Foxtail, Green: 100
Green foxtail; [7]
  Plant response rating, Foxtail, Green: 70
Green foxtail; [8]
  Plant response rating, Foxtail, Green: 30
goosegrass; [1]
  Plant response rating, Goosegrass: 85
goosegrass; [2]
  Plant response rating, Goosegrass: 80
goosegrass; [3]
  Plant response rating, Goosegrass: 100
goosegrass; [4]
  Plant response rating, Goosegrass: 100
goosegrass; [5]
  Plant response rating, Goosegrass: 100
goosegrass; [6]
  Plant response rating, Goosegrass: 100
goosegrass; [7]
  Plant response rating, Goosegrass: 80
goosegrass; [8]
  Plant response rating, Goosegrass: 60
mustard; [1]
  Plant response rating, Black Mustard: 100
mustard; [2]
  Plant response rating, Black Mustard: 100
mustard; [3]
  Plant response rating, Black Mustard: 100
mustard; [4]
  Plant response rating, Black Mustard: 100
mustard; [5]
  Plant response rating, Black Mustard: 100
mustard; [6]
  Plant response rating, Black Mustard: 95
mustard; [7]
  Plant response rating, Black Mustard: 100
mustard; [8]
  Plant response rating, Black Mustard: 100
guineagrass; [1]
  Plant response rating, Guineagrass: 85
guineagrass; [2]
  Plant response rating, Guineagrass: 75
guineagrass; [3]
  Plant response rating, Guineagrass: 70
guineagrass; [4]
  Plant response rating, Guineagrass: 85
guineagrass; [5]
  Plant response rating, Guineagrass: 100
guineagrass; [6]
  Plant response rating, Guineagrass: 100
guineagrass; [7]
  Plant response rating, Guineagrass: 70
guineagrass; [8]
  Plant response rating, Guineagrass: 60
barnyardgrass; [1]
  Plant response rating, Barnyardgrass: 80
barnyardgrass; [2]
  Plant response rating, Barnyardgrass: 70
barnyardgrass; [3]
  Plant response rating, Barnyardgrass: 60
barnyardgrass; [4]
  Plant response rating, Barnyardgrass: 85
barnyardgrass; [5]
  Plant response rating, Barnyardgrass: 95
barnyardgrass; [6]
  Plant response rating, Barnyardgrass: 100
barnyardgrass; [7]
  Plant response rating, Barnyardgrass: 70
barnyardgrass; [8]
  Plant response rating, Barnyardgrass: 40
Southern sandbur; [1]
  Plant response rating, Sandbur: 80
Southern sandbur; [2]
  Plant response rating, Sandbur: 70
Southern sandbur; [3]
  Plant response rating, Sandbur: 10
Southern sandbur; [4]
  Plant response rating, Sandbur: 60
Southern sandbur; [5]
  Plant response rating, Sandbur: 100
Southern sandbur; [6]
  Plant response rating, Sandbur: 100
Southern sandbur; [7]
  Plant response rating, Sandbur: 40
Southern sandbur; [8]
  Plant response rating, Sandbur: 30
Common sowthistle; [2]
  Plant response rating, Sowthistle: 95
Common sowthistle; [3]
  Plant response rating, Sowthistle: 100
Common sowthistle; [4]
  Plant response rating, Sowthistle: 100
Common sowthistle; [5]
  Plant response rating, Sowthistle: 100
Common sowthistle; [6]
  Plant response rating, Sowthistle: 95
Common sowthistle; [7]
  Plant response rating, Sowthistle: 85
Common sowthistle; [8]
  Plant response rating, Sowthistle: 30
Italian ryegrass; [1]
  Plant response rating, Ryegrass, Italian: 85
Italian ryegrass; [2]
  Plant response rating, Ryegrass, Italian: 85
Italian ryegrass; [3]
  Plant response rating, Ryegrass, Italian: 70
Italian ryegrass; [4]
  Plant response rating, Ryegrass, Italian: 95
Italian ryegrass; [5]
  Plant response rating, Ryegrass, Italian: 100
Italian ryegrass; [6]
  Plant response rating, Ryegrass, Italian: 100
Italian ryegrass; [7]
  Plant response rating, Ryegrass, Italian: 80
Italian ryegrass; [8]
  Plant response rating, Ryegrass, Italian: 60
Broadleaf signalgrass; [1]
  Plant response rating, Signalgrass: 80
Broadleaf signalgrass; [2]
  Plant response rating, Signalgrass: 70
Broadleaf signalgrass; [3]
  Plant response rating, Signalgrass: 60
Broadleaf signalgrass; [4]
  Plant response rating, Signalgrass: 80
Broadleaf signalgrass; [5]
  Plant response rating, Signalgrass: 100
Broadleaf signalgrass; [6]
  Plant response rating, Signalgrass: 100
Broadleaf signalgrass; [7]
  Plant response rating, Signalgrass: 60
Broadleaf signalgrass; [8]
  Plant response rating, Signalgrass: 20
Tropical spiderwort; [1]
  Plant response rating, Spiderwort: 90
Tropical spiderwort; [2]
  Plant response rating, Spiderwort: 80
Tropical spiderwort; [4]
  Plant response rating, Spiderwort: 85
Tropical spiderwort; [5]
  Plant response rating, Spiderwort: 95
Tropical spiderwort; [6]
  Plant response rating, Spiderwort: 100
Tropical spiderwort; [7]
  Plant response rating, Spiderwort: 80
Tropical spiderwort; [8]
  Plant response rating, Spiderwort: 10

## CCn1nc(C(C)(C)C)cc1C(=O)Nc1cc(C(=S)N(C)C)ccc1F [Compound 294]
Green foxtail; [1]
  Plant response rating, Foxtail, Green: 85
Green foxtail; [2]
  Plant response rating, Foxtail, Green: 80
Green foxtail; [4]
  Plant response rating, Foxtail, Green: 80
Green foxtail; [5]
  Plant response rating, Foxtail, Green: 100
Green foxtail; [9]
  Plant response rating, Foxtail, Green: 100
Green foxtail; [6]
  Plant response rating, Foxtail, Green: 100
Green foxtail; [7]
  Plant response rating, Foxtail, Green: 60
Green foxtail; [8]
  Plant response rating, Foxtail, Green: 40
goosegrass; [1]
  Plant response rating, Goosegrass: 85
goosegrass; [2]
  Plant response rating, Goosegrass: 80
goosegrass; [4]
  Plant response rating, Goosegrass: 95
goosegrass; [5]
  Plant response rating, Goosegrass: 95
goosegrass; [9]
  Plant response rating, Goosegrass: 100
goosegrass; [6]
  Plant response rating, Goosegrass: 100
goosegrass; [7]
  Plant response rating, Goosegrass: 60
goosegrass; [8]
  Plant response rating, Goosegrass: 50
mustard; [1]
  Plant response rating, Black Mustard: 95
mustard; [2]
  Plant response rating, Black Mustard: 90
mustard; [4]
  Plant response rating, Black Mustard: 100
mustard; [5]
  Plant response rating, Black Mustard: 100
mustard; [9]
  Plant response rating, Black Mustard: 100
mustard; [6]
  Plant response rating, Black Mustard: 100
mustard; [7]
  Plant response rating, Black Mustard: 90
mustard; [8]
  Plant response rating, Black Mustard: 70
guineagrass; [1]
  Plant response rating, Guineagrass: 85
guineagrass; [2]
  Plant response rating, Guineagrass: 80
guineagrass; [4]
  Plant response rating, Guineagrass: 90
guineagrass; [5]
  Plant response rating, Guineagrass: 100
guineagrass; [9]
  Plant response rating, Guineagrass: 100
guineagrass; [6]
  Plant response rating, Guineagrass: 100
guineagrass; [7]
  Plant response rating, Guineagrass: 70
guineagrass; [8]
  Plant response rating, Guineagrass: 50
barnyardgrass; [1]
  Plant response rating, Barnyardgrass: 80
barnyardgrass; [2]
  Plant response rating, Barnyardgrass: 75
barnyardgrass; [4]
  Plant response rating, Barnyardgrass: 95
barnyardgrass; [5]
  Plant response rating, Barnyardgrass: 95
barnyardgrass; [9]
  Plant response rating, Barnyardgrass: 100
barnyardgrass; [6]
  Plant response rating, Barnyardgrass: 100
barnyardgrass; [7]
  Plant response rating, Barnyardgrass: 60
barnyardgrass; [8]
  Plant response rating, Barnyardgrass: 40
Southern sandbur; [1]
  Plant response rating, Sandbur: 80
Southern sandbur; [2]
  Plant response rating, Sandbur: 75
Southern sandbur; [4]
  Plant response rating, Sandbur: 70
Southern sandbur; [5]
  Plant response rating, Sandbur: 80
Southern sandbur; [9]
  Plant response rating, Sandbur: 95
Southern sandbur; [6]
  Plant response rating, Sandbur: 100
Southern sandbur; [7]
  Plant response rating, Sandbur: 50
Southern sandbur; [8]
  Plant response rating, Sandbur: 10
Common sowthistle; [1]
  Plant response rating, Sowthistle: 80
Common sowthistle; [4]
  Plant response rating, Sowthistle: 80
Common sowthistle; [5]
  Plant response rating, Sowthistle: 95
Common sowthistle; [9]
  Plant response rating, Sowthistle: 100
Common sowthistle; [6]
  Plant response rating, Sowthistle: 100
Common sowthistle; [7]
  Plant response rating, Sowthistle: 60
Common sowthistle; [8]
  Plant response rating, Sowthistle: 60
Italian ryegrass; [1]
  Plant response rating, Ryegrass, Italian: 95
Italian ryegrass; [2]
  Plant response rating, Ryegrass, Italian: 95
Italian ryegrass; [4]
  Plant response rating, Ryegrass, Italian: 80
Italian ryegrass; [5]
  Plant response rating, Ryegrass, Italian: 100
Italian ryegrass; [9]
  Plant response rating, Ryegrass, Italian: 100
Italian ryegrass; [6]
  Plant response rating, Ryegrass, Italian: 100
Italian ryegrass; [7]
  Plant response rating, Ryegrass, Italian: 80
Italian ryegrass; [8]
  Plant response rating, Ryegrass, Italian: 70
Broadleaf signalgrass; [1]
  Plant response rating, Signalgrass: 70
Broadleaf signalgrass; [2]
  Plant response rating, Signalgrass: 50
Broadleaf signalgrass; [4]
  Plant response rating, Signalgrass: 50
Broadleaf signalgrass; [5]
  Plant response rating, Signalgrass: 70
Broadleaf signalgrass; [9]
  Plant response rating, Signalgrass: 80
Broadleaf signalgrass; [6]
  Plant response rating, Signalgrass: 80
Broadleaf signalgrass; [7]
  Plant response rating, Signalgrass: 30
Broadleaf signalgrass; [8]
  Plant response rating, Signalgrass: 30
Tropical spiderwort; [1]
  Plant response rating, Spiderwort: 90
Tropical spiderwort; [2]
  Plant response rating, Spiderwort: 70
Tropical spiderwort; [5]
  Plant response rating, Spiderwort: 85
Tropical spiderwort; [9]
  Plant response rating, Spiderwort: 90
Tropical spiderwort; [6]
  Plant response rating, Spiderwort: 95
Tropical spiderwort; [7]
  Plant response rating, Spiderwort: 30
Tropical spiderwort; [8]
  Plant response rating, Spiderwort: 20
